Experimental data as given in patent US12723063B2, “GIPR-agonist compounds” (Eli Lilly and Company, priority 2019, dated 2026).
*1 amine or outer side, *2 acyl side, *3 side chain or, on linkers, in order; H or OH if unused. Where a SMILES comes first, the peptide text is derived from it. Side-chain parts run from the residue outwards. [ ]: non-standard residue; d: D form. The star is where a group is joined. C20 diacid = O=C(O)CCCCCCCCCCCCCCCCCCC(=O)*; αMePhe(2-F) = C[C@](N)(Cc1ccccc1F)C(=O)O; γGlu = O=C(O)[C@H](CCC(=O)[*:2])N[*:1]; αMeF = C[C@](N)(Cc1ccccc1)C(=O)O; 4Pal = N[C@@H](Cc1ccncc1)C(=O)O; αMeL = CC(C)C[C@](C)(N)C(=O)O; AEEA = NCCOCCOCC(=O)O; Aib = CC(C)(N)C(=O)O

Experiments:
Test in all cases: cAMP functional assay (HTRF) in HEK293 cells in presence of 0.1% casein
Format in all cases: cell-based
[1] = molecular target: T1, human GLP-1 receptor (GLP-1R) (Homo sapiens, UniProt P43220); settings: HEK293 cells expressing human GLP-1R, geometric mean, read-out: hGLP1R cAMP Rel EC50 nM (SEM, n)
T1 construct: expressed in transfected cells; host or cells: HEK293
T1 sequence (P43220 24-463): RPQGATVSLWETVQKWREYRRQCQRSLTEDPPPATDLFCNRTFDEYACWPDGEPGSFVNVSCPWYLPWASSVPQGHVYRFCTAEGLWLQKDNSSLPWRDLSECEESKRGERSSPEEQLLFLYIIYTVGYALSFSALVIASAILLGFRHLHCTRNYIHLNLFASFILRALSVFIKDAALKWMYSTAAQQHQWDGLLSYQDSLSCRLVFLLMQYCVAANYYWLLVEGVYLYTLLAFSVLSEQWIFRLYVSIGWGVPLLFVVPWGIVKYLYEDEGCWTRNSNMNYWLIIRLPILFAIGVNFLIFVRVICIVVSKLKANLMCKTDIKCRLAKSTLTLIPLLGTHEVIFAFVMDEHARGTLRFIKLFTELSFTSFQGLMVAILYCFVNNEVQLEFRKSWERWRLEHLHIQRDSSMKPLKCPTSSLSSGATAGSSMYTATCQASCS

[2] = molecular target: T2, human glucagon receptor (GcgR) (Homo sapiens, UniProt P47871); settings: HEK293 cells expressing human GcgR, geometric mean, read-out: hGcgR cAMP Rel EC50 nM (SEM, n)
T2 construct: expressed in transfected cells; host or cells: HEK293
T2 sequence (P47871 26-477): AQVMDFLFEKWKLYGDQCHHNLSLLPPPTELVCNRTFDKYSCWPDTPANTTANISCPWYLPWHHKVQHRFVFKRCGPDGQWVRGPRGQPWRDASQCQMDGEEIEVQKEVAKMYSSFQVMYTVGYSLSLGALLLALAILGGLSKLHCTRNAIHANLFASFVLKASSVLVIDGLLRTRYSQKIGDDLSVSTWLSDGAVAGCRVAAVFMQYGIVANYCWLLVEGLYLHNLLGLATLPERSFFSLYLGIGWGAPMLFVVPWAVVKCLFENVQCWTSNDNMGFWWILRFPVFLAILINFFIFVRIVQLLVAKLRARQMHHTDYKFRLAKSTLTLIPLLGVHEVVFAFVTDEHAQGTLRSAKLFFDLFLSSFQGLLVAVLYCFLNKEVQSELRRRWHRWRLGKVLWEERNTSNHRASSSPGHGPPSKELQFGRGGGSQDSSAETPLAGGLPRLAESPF

[3] = molecular target: T3, human glucose-dependent insulinotropic peptide receptor (GIPR) (Homo sapiens, UniProt P48546); settings: HEK293 cells expressing human GIPR, geometric mean, read-out: hGIPR cAMP Rel EC50 nM (SEM, n)
T3 construct: expressed in transfected cells; host or cells: HEK293
T3 sequence (P48546 22-466): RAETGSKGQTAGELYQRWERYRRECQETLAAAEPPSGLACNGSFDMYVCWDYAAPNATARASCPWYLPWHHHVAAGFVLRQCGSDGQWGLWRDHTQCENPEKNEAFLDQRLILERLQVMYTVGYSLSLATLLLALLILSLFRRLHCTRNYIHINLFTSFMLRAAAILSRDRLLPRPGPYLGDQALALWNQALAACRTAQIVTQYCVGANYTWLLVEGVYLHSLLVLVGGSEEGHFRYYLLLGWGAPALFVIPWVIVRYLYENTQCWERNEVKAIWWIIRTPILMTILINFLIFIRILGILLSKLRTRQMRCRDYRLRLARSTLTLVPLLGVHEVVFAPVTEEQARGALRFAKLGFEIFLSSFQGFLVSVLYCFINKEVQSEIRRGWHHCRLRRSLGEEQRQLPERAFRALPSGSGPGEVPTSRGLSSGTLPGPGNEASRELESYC

Q: `CC[C@H](C)[C@H](NC(=O)[C@H](CO)NC(=O)[C@H](Cc1ccc(O)cc1)NC(=O)[C@H](CC(=O)O)NC(=O)[C@H](CO)NC(=O)[C@@H](NC(=O)[C@](C)(Cc1ccccc1)NC(=O)[C@@H](NC(=O)CNC(=O)[C@H](CCC(=O)O)NC(=O)C(C)(C)NC(=O)[C@@H](N)Cc1ccc(O)cc1)[C@@H](C)O)[C@@H](C)CC)C(=O)N[C@@H](C)C(=O)N[C@@H](CC(C)C)C(=O)N[C@@H](CC(=O)O)C(=O)N[C@@H](CCCCN)C(=O)N[C@@H](CCCCNC(=O)COCCOCCNC(=O)COCCOCCNC(=O)CC[C@H](NC(=O)CCCCCCCCCCCCCCCCCCC(=O)O)C(=O)O)C(=O)N[C@@H](Cc1c[nH]cn1)C(=O)N[C@@H](CCC(N)=O)C(=O)NC(C)(C)C(=O)N[C@@H](CC(=O)O)C(=O)N[C@@H](Cc1ccccc1)C(=O)N[C@H](C(=O)N[C@@H](CCC(=O)O)C(=O)N[C@@H](Cc1ccncc1)C(=O)N[C@@H](CC(C)C)C(=O)N[C@@H](CC(C)C)C(=O)N[C@@H](CCC(=O)O)C(=O)NCC(=O)NCC(=O)N1CCC[C@H]1C(=O)N[C@@H](CO)C(=O)N[C@@H](CO)C(=O)NCC(=O)N[C@@H](C)C(=O)N1CCC[C@H]1C(=O)N1CCC[C@H]1C(=O)N1CCC[C@H]1C(=O)N[C@@H](CO)C(N)=O)C(C)C` [Example 44] (H-Y[Aib]EGT[αMeF]ISDYSIALDKK([AEEA-AEEA-γGlu-C20 diacid])HQ[Aib]DFVE[4Pal]LLEGGPSSGAPPPS-NH2) was tested. Which EC50 [1] did it give?
A: The EC50 was 1180 nM.

Q: What about the EC50 [2] of the same molecule?
A: Its EC50 is over 5000 nM.

Q: What about the EC50 [3] of the same molecule?
A: The EC50 was 0.0084 nM.

Q: `CC[C@H](C)[C@H](NC(=O)[C@H](Cc1ccccc1)NC(=O)[C@@H](NC(=O)CNC(=O)[C@H](CCC(=O)O)NC(=O)C(C)(C)NC(=O)[C@@H](N)Cc1ccc(O)cc1)[C@@H](C)O)C(=O)N[C@@H](CO)C(=O)N[C@@H](CC(=O)O)C(=O)N[C@@H](Cc1ccc(O)cc1)C(=O)N[C@@H](CO)C(=O)N[C@H](C(=O)N[C@@](C)(CC(C)C)C(=O)N[C@@H](CC(C)C)C(=O)N[C@@H](CC(=O)O)C(=O)N[C@@H](CCCCN)C(=O)N[C@@H](CCCCNC(=O)COCCOCCNC(=O)COCCOCCNC(=O)CC[C@H](NC(=O)CCCCCCCCCCCCCCCCCCC(=O)O)C(=O)O)C(=O)N[C@@H](Cc1c[nH]cn1)C(=O)N[C@@H](CCC(N)=O)C(=O)NC(C)(C)C(=O)N[C@@H](CC(=O)O)C(=O)N[C@@H](Cc1ccccc1)C(=O)N[C@H](C(=O)N[C@@H](CCC(=O)O)C(=O)N[C@@H](Cc1ccncc1)C(=O)N[C@@H](CC(C)C)C(=O)N[C@@H](CC(C)C)C(=O)N[C@@H](CCC(=O)O)C(=O)N[C@H](C(=O)NCC(=O)N1CCC[C@H]1C(=O)N[C@@H](CO)C(=O)N[C@@H](CO)C(=O)NCC(=O)N[C@@H](C)C(=O)N1CCC[C@H]1C(=O)N1CCC[C@H]1C(=O)N1CCC[C@H]1C(=O)N[C@@H](CO)C(N)=O)[C@@H](C)O)C(C)C)[C@@H](C)CC` [Example 45] (H-Y[Aib]EGTFISDYSI[αMeL]LDKK([AEEA-AEEA-γGlu-C20 diacid])HQ[Aib]DFVE[4Pal]LLETGPSSGAPPPS-NH2) was tested. Which EC50 [1] did it give?
A: The EC50 was over 5000 nM.

Q: And the EC50 [2]?
A: Its EC50 is 1690 nM.

Q: And the EC50 [3]?
A: The EC50 was 0.049 nM.

Q: With `CC[C@H](C)[C@H](NC(=O)[C@H](CO)NC(=O)[C@H](Cc1ccc(O)cc1)NC(=O)[C@H](CC(=O)O)NC(=O)[C@H](CO)NC(=O)[C@@H](NC(=O)[C@](C)(Cc1ccccc1F)NC(=O)[C@@H](NC(=O)CNC(=O)[C@H](CCC(=O)O)NC(=O)C(C)(C)NC(=O)[C@@H](N)Cc1ccc(O)cc1)[C@@H](C)O)[C@@H](C)CC)C(=O)N[C@@H](C)C(=O)N[C@@H](CC(C)C)C(=O)N[C@@H](CC(=O)O)C(=O)N[C@@H](CCCCN)C(=O)N[C@@H](CCCCNC(=O)COCCOCCNC(=O)COCCOCCNC(=O)CC[C@H](NC(=O)CCCCCCCCCCCCCCCCCCC(=O)O)C(=O)O)C(=O)N[C@@H](Cc1c[nH]cn1)C(=O)N[C@@H](CCC(N)=O)C(=O)NC(C)(C)C(=O)N[C@@H](CC(=O)O)C(=O)N[C@@H](Cc1ccccc1)C(=O)N[C@H](C(=O)N[C@@H](CCC(=O)O)C(=O)N[C@@H](Cc1ccncc1)C(=O)N[C@@H](CC(C)C)C(=O)N[C@@H](CC(C)C)C(=O)N[C@@H](CCC(=O)O)C(=O)N[C@H](C(=O)NCC(=O)N1CCC[C@H]1C(=O)N[C@@H](CO)C(=O)N[C@@H](CO)C(=O)NCC(=O)N[C@@H](C)C(=O)N1CCC[C@H]1C(=O)N1CCC[C@H]1C(=O)N1CCC[C@H]1C(=O)N[C@@H](CO)C(N)=O)[C@@H](C)O)C(C)C` [Example 38] (H-Y[Aib]EGT[αMePhe(2-F)]ISDYSIALDKK([AEEA-AEEA-γGlu-C20 diacid])HQ[Aib]DFVE[4Pal]LLETGPSSGAPPPS-NH2) as the molecule, how does the EC50 [1] read?
A: Its EC50 is 1390 nM.

Q: And the EC50 [2]?
A: Its EC50 is over 5000 nM.

Q: And the EC50 [3]?
A: Its EC50 is 0.0368 nM.

Q: What does the source list for `CC[C@H](C)[C@H](NC(=O)[C@H](Cc1ccccc1)NC(=O)[C@@H](NC(=O)CNC(=O)[C@H](CCC(=O)O)NC(=O)C(C)(C)NC(=O)[C@@H](N)Cc1ccc(O)cc1)[C@@H](C)O)C(=O)N[C@@H](CO)C(=O)N[C@@H](CC(=O)O)C(=O)N[C@@H](Cc1ccc(O)cc1)C(=O)N[C@@H](CO)C(=O)N[C@H](C(=O)N[C@@](C)(CC(C)C)C(=O)N[C@@H](CC(C)C)C(=O)N[C@@H](CC(=O)O)C(=O)N[C@@H](CCCCN)C(=O)N[C@@H](CCCCNC(=O)COCCOCCNC(=O)COCCOCCNC(=O)CC[C@H](NC(=O)CCCCCCCCCCCCCCCCCCC(=O)O)C(=O)O)C(=O)N[C@@H](Cc1c[nH]cn1)C(=O)N[C@@H](CCC(N)=O)C(=O)NC(C)(C)C(=O)N[C@@H](CCC(=O)O)C(=O)N[C@@H](Cc1ccccc1)C(=O)N[C@H](C(=O)N[C@@H](CCC(=O)O)C(=O)N[C@@H](Cc1ccc(O)cc1)C(=O)N[C@@H](CC(C)C)C(=O)N[C@@H](CC(C)C)C(=O)N[C@@H](CCC(=O)O)C(=O)N[C@@H](CCC(N)=O)C(=O)NCC(=O)N1CCC[C@H]1C(=O)N[C@@H](CO)C(=O)N[C@@H](CO)C(=O)NCC(=O)N[C@@H](C)C(=O)N1CCC[C@H]1C(=O)N1CCC[C@H]1C(=O)N1CCC[C@H]1C(=O)N[C@@H](CO)C(N)=O)C(C)C)[C@@H](C)CC` [Example 63] (H-Y[Aib]EGTFISDYSI[αMeL]LDKK([AEEA-AEEA-γGlu-C20 diacid])HQ[Aib]EFVEYLLEQGPSSGAPPPS-NH2)?
A: EC50 [1]: > 5000 nM; EC50 [2]: 1170 nM; EC50 [3]: 0.0398 nM

Q: How did the EC50 [1] turn out when `CC[C@H](C)[C@H](NC(=O)[C@H](CO)NC(=O)[C@H](Cc1ccc(O)cc1)NC(=O)[C@H](CC(=O)O)NC(=O)[C@H](CO)NC(=O)[C@@H](NC(=O)[C@](C)(Cc1ccccc1)NC(=O)[C@@H](NC(=O)CNC(=O)[C@H](CCC(=O)O)NC(=O)C(C)(C)NC(=O)[C@@H](N)Cc1ccc(O)cc1)[C@@H](C)O)[C@@H](C)CC)C(=O)N[C@@H](C)C(=O)N[C@@H](CC(C)C)C(=O)N[C@@H](CC(=O)O)C(=O)N[C@@H](CCCCN)C(=O)N[C@@H](CCCCNC(=O)COCCOCCNC(=O)COCCOCCNC(=O)CC[C@H](NC(=O)CCCCCCCCCCCCCCCCCCC(=O)O)C(=O)O)C(=O)N[C@@H](Cc1c[nH]cn1)C(=O)N[C@@H](CCC(N)=O)C(=O)NC(C)(C)C(=O)N[C@@H](CC(=O)O)C(=O)N[C@@H](Cc1ccccc1)C(=O)N[C@H](C(=O)N[C@@H](CCC(=O)O)C(=O)N[C@@H](Cc1ccncc1)C(=O)N[C@@H](CC(C)C)C(=O)N[C@@H](CC(C)C)C(=O)N[C@@H](CCC(=O)O)C(=O)N[C@@H](C)C(=O)NCC(=O)N1CCC[C@H]1C(=O)N[C@@H](CO)C(=O)N[C@@H](CO)C(=O)NCC(=O)N[C@@H](C)C(=O)N1CCC[C@H]1C(=O)N1CCC[C@H]1C(=O)N1CCC[C@H]1C(=O)N[C@@H](CO)C(N)=O)C(C)C` [Example 43] (H-Y[Aib]EGT[αMeF]ISDYSIALDKK([AEEA-AEEA-γGlu-C20 diacid])HQ[Aib]DFVE[4Pal]LLEAGPSSGAPPPS-NH2) was run?
A: The EC50 was 1020 nM.

Q: And the EC50 [2]?
A: Its EC50 is over 5000 nM.

Q: And the EC50 [3]?
A: Its EC50 is 0.0154 nM.

Q: `CC[C@H](C)[C@H](NC(=O)[C@H](CO)NC(=O)[C@H](Cc1ccc(O)cc1)NC(=O)[C@H](CC(=O)O)NC(=O)[C@H](CO)NC(=O)[C@@H](NC(=O)[C@](C)(Cc1ccccc1)NC(=O)[C@@H](NC(=O)CNC(=O)[C@H](CCC(=O)O)NC(=O)C(C)(C)NC(=O)[C@@H](N)Cc1ccc(O)cc1)[C@@H](C)O)[C@@H](C)CC)C(=O)N[C@@H](C)C(=O)N[C@@H](CC(C)C)C(=O)N[C@@H](CC(=O)O)C(=O)N[C@@H](CCCCN)C(=O)N[C@@H](CCCCNC(=O)COCCOCCNC(=O)COCCOCCNC(=O)CC[C@H](NC(=O)CCCCCCCCCCCCCCCCCCC(=O)O)C(=O)O)C(=O)N[C@@H](Cc1c[nH]cn1)C(=O)N[C@@H](CCC(N)=O)C(=O)NC(C)(C)C(=O)N[C@@H](CC(=O)O)C(=O)N[C@@H](Cc1ccccc1)C(=O)N[C@H](C(=O)N[C@@H](CCC(=O)O)C(=O)N[C@@H](Cc1ccncc1)C(=O)N[C@@H](CC(C)C)C(=O)N[C@@H](CC(C)C)C(=O)N[C@@H](CCC(=O)O)C(=O)N[C@H](C(=O)NCC(=O)N1CCC[C@H]1C(=O)N[C@@H](CO)C(=O)N[C@@H](CO)C(=O)NCC(=O)N[C@@H](C)C(=O)N1CCC[C@H]1C(=O)N1CCC[C@H]1C(=O)N1CCC[C@H]1C(=O)N[C@@H](CO)C(N)=O)[C@@H](C)O)C(C)C` [Example 41] (H-Y[Aib]EGT[αMeF]ISDYSIALDKK([AEEA-AEEA-γGlu-C20 diacid])HQ[Aib]DFVE[4Pal]LLETGPSSGAPPPS-NH2) was tested. Which EC50 [1] did it give?
A: The EC50 was 1800 nM.

Q: And the EC50 [2]?
A: Its EC50 is over 5000 nM.

Q: What about the EC50 [3] of the same molecule?
A: The EC50 was 0.0281 nM.
